For one test, the target named is T1, human fyn SH2 domain (Homo sapiens, UniProt P06241).
T1 construct: made in house; host or cells: E. coli (pGEX-2T)
Briefly: ELISA-based SH2 domain / pY peptide binding assay, fyn SH2 domain. The method, then:
(§1) The inhibitory activity of compounds at the different human SH2 domains was determined in vitro using SH2 domains expressed as fusion proteins in E. coli. The SH2 domains used herein were the human forms of the src SH2 domain, Grb2 SH2 domain, lck SH2 domain, fyn SH2 domain, SH-PTP2 SH2 domain, p85 SH2 domain and hcp SH2 domain.
(§2) Fusion proteins having the structure GST-X-SH2 were prepared as described in the GST gene fusion kit system available from Pharmacia (New Jersey). GST is the tagging sequence glutathione s-transferase epitope (SEQ ID NO: 8) for fyn, Grb2 and SH-PTP2 and is the tagging sequence glutathione s-transferase epitope (SEQ ID NO: 9) for p85. SH2 refers to the SH2 domains of fyn, Grb2, p85 and SH-PTP2 which were expressed and purified using glutathione Sepharose 4B (Pharmacia) according to "Current Protocols in Molecular Biology", ed. FM Ausubel et al., pub. John Wiley and Sons, Inc., (1995), p 16.7.1. X is an appropriate linker, preferably of 6 to 21 base pairs, used to keep the SH2 construct in frame and complement cloning. As such, the sequence of X is not critical. One skilled in the art can readily construct the appropriate linker. The DNA sequence encoding each GST-X-SH2 fusion protein was designed such that the indicated restriction sites (BamH1 and EcoRI) flank the SH2 region. […]

In a further test the target is T2, human Grb2 SH2 domain (Homo sapiens, UniProt P62993).
T2 construct: made in house; host or cells: E. coli (pGEX-2T)
T2 sequence (P62993 58-159): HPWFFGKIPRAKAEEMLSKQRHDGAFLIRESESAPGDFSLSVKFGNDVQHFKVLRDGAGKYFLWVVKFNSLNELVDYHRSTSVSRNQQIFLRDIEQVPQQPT
The test can be described thus: ELISA-based SH2 domain / pY peptide binding assay, Grb2 SH2 domain. The method, then:
as §1, §2
In general terms: An ELISA detects its analyte on a solid surface through an enzyme-linked reagent.

[1] abbreviates: Ki calculated from IC50 with the expanded equation.
The mark [2] stands for this setting: inhibition of binding of 0.1 uM biotinylated pY peptide to SH2 domain fusion protein.

pIC50, pKi: −log10 of the molar value. A value given as a limit tells only on which side of the number the result lay.

T1 sequence (P06241 143-252): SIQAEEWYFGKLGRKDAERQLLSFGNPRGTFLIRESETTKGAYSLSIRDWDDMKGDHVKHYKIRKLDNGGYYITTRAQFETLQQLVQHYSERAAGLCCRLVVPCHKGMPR

Take `CCCCCCNC(=O)[C@H]1CC[C@H](CNC(=O)c2ccc(C(=O)c3ccc(C(=O)O)cc3)cc2)CC1` [Compound 6, 4-carboxy-benzophenone-4-carboxamido-trans-4-methyl-cyclohexyl-N-hexyl carboxamide]: the pKi on human fyn SH2 domain (setting [1]) and on human Grb2 SH2 domain (setting [1]) was under 3.00 throughout. The pIC50 on human fyn SH2 domain (setting [2]) and on human Grb2 SH2 domain (setting [2]) was under 3.52 each time.

Values taken from patent EP0728482A2, “Use of hcp specific compounds to enhance erythropoiesis” (SMITHKLINE BEECHAM CORPORATION, priority 1995, dated 1996).
